Activity calls are given as the source filed them. The rule behind the calls is not given here.
What was measured:
[1] = test system: MCF7; test: Cell cycle arrest in human MCF7 cells assessed as accumulation in G2 phase at 5 times of antiproliferative IC50 incubated for 48 hrs by propidium iodide based flow cytometry (reference value: 16 %); type: functional
[2] = test system: MCF7; test: Cell cycle arrest in human MCF7 cells assessed as accumulation in S phase at 5 times of antiproliferative IC50 incubated for 48 hrs by propidium iodide based flow cytometry (reference value: 34 %); type: functional
[3] = Cell cycle arrest in human ALL5 cells assessed as accumulation in subG1 phase at 5 times of antiproliferative IC50 incubated for 72 hrs by propidium iodide based flow cytometry (reference value: 15.5 %); type: functional
[4] = Cell cycle arrest in human ALL5 cells assessed as accumulation in S phase at 5 times of antiproliferative IC50 incubated for 72 hrs by propidium iodide based flow cytometry (reference value: 13.5 %); type: functional
[5] = test system: MCF7; test: Cell cycle arrest in human MCF7 cells assessed as accumulation in G2 phase at 5 times of antiproliferative IC50 incubated for 24 hrs by propidium iodide based flow cytometry (reference value: 22.4 %); type: functional
[6] = Cell cycle arrest in human ALL5 cells assessed as accumulation in G2 phase at 5 times of antiproliferative IC50 incubated for 24 hrs by propidium iodide based flow cytometry (reference value: 10.6 %); type: functional
[7] = Selectivity index, ratio of IC50 of mouse BALB/3T3 cells to IC50 of human LoVo/DX cells; type: toxicity; conditions: BALB/3T3 cells versus LoVo/DX cells, read-out: Ratio IC50
[8] = test system: LoVo; test: Antiproliferative activity against human LoVo cells assessed as reduction in cell viability incubated for 120 hrs by MTT assay; type: functional, cell-based
[9] = Cell cycle arrest in human ALL5 cells assessed as accumulation in subG1 phase at 5 times of antiproliferative IC50 incubated for 24 hrs by propidium iodide based flow cytometry (reference value: 10.5 %); type: functional
[10] = test system: MCF7; test: Cell cycle arrest in human MCF7 cells assessed as accumulation in G1 phase at 5 times of antiproliferative IC50 incubated for 48 hrs by propidium iodide based flow cytometry (reference value: 40.8 %); type: functional
[11] = Cell cycle arrest in human ALL5 cells assessed as accumulation in G2 phase at 5 times of antiproliferative IC50 incubated for 48 hrs by propidium iodide based flow cytometry (reference value: 11.2 %); type: functional
[12] = Selectivity index, ratio of IC50 of mouse BALB/3T3 cells to IC50 of human LoVo cells; type: toxicity; conditions: BALB/3T3 cells versus LoVo cells, read-out: Ratio IC50
[13] = test system: MCF7; test: Cell cycle arrest in human MCF7 cells assessed as accumulation in S phase at 5 times of antiproliferative IC50 incubated for 24 hrs by propidium iodide based flow cytometry (reference value: 19.9 %); type: functional
[14] = species on record: Homo sapiens; test: Induction of cell death in human ALL5 cells assessed as decrease in 4 N DNA at 5 times of antiproliferative IC50 incubated for 72 hrs by propidium iodide based flow cytometry; type: functional
[15] = test system: BALB/3T3; test: Antiproliferative activity against mouse BALB/3T3 cells assessed as reduction in cell viability incubated for 120 hrs by MTT assay; type: cell-based; conditions: BALB/3T3, 120 h
[16] = Antiproliferative activity against human LoVo/DX cells assessed as reduction in cell viability incubated for 120 hrs by MTT assay; type: functional, cell-based
[17] = test system: MCF7; test: Cell cycle arrest in human MCF7 cells assessed as accumulation in S phase at 5 times of antiproliferative IC50 incubated for 72 hrs by propidium iodide based flow cytometry (reference value: 19.8 %); type: functional
[18] = Antiproliferative activity against human ALL5 cells assessed as reduction in cell viability incubated for 120 hrs by MTT assay; type: functional, cell-based; conditions: ALL5, 120 h
[19] = Selectivity index, ratio of IC50 of mouse BALB/3T3 cells to IC50 of human MCF7 cells; type: toxicity; conditions: BALB/3T3 cells versus MCF7 cells, read-out: Ratio IC50
[20] = species on record: Homo sapiens; test: Induction of cell cycle arrest in human ALL5 cells assessed as increase in 4 N DNA at 5 times of antiproliferative IC50 incubated for 48 hrs by propidium iodide based flow cytometry; type: functional
[21] = test system: MCF7; test: Cell cycle arrest in human MCF7 cells assessed as accumulation in G2 phase at 5 times of antiproliferative IC50 incubated for 72 hrs by propidium iodide based flow cytometry (reference value: 18.6 %); type: functional
[22] = test system: MCF7; test: Cell cycle arrest in human MCF7 cells assessed as accumulation in subG1 phase at 5 times of antiproliferative IC50 incubated for 48 hrs by propidium iodide based flow cytometry (reference value: 9.19 %); type: functional
[23] = Resistance index, ratio of IC50 of human LoVo/DX cells to IC50 of human LoVo cells; type: functional
[24] = Cell cycle arrest in human ALL5 cells assessed as accumulation in G1 phase at 5 times of antiproliferative IC50 incubated for 48 hrs by propidium iodide based flow cytometry (reference value: 67.4 %); type: functional
[25] = Selectivity index, ratio of IC50 of mouse BALB/3T3 cells to IC50 of human ALL5 cells
[26] = species on record: Homo sapiens; test: Induction of cell cycle arrest in human ALL5 cells assessed as increase in 4 N DNA at 5 times of antiproliferative IC50 incubated for 24 hrs by propidium iodide based flow cytometry; type: functional
[27] = Cell cycle arrest in human ALL5 cells assessed as accumulation in G2 phase at 5 times of antiproliferative IC50 incubated for 72 hrs by propidium iodide based flow cytometry (reference value: 11.3 %); type: functional
[28] = Cell cycle arrest in human ALL5 cells assessed as accumulation in G1 phase at 5 times of antiproliferative IC50 incubated for 24 hrs by propidium iodide based flow cytometry (reference value: 68.1 %); type: functional
[29] = test system: MCF7; test: Antiproliferative activity against human MCF7 cells assessed as reduction in cell viability incubated for 120 hrs by MTT assay; type: functional, cell-based; conditions: MCF7, 120 h
[30] = Cell cycle arrest in human ALL5 cells assessed as accumulation in S phase at 5 times of antiproliferative IC50 incubated for 48 hrs by propidium iodide based flow cytometry (reference value: 10.3 %); type: functional
[31] = Selectivity index, ratio of IC50 of mouse BALB/3T3 cells to IC50 of human A549 cells
[32] = test system: MCF7; test: Cell cycle arrest in human MCF7 cells assessed as accumulation in subG1 phase at 5 times of antiproliferative IC50 incubated for 72 hrs by propidium iodide based flow cytometry (reference value: 3.59 %); type: functional
[33] = Cell cycle arrest in human ALL5 cells assessed as accumulation in G1 phase at 5 times of antiproliferative IC50 incubated for 72 hrs by propidium iodide based flow cytometry (reference value: 59.7 %); type: functional
[34] = test system: MCF7; test: Cell cycle arrest in human MCF7 cells assessed as accumulation in G1 phase at 5 times of antiproliferative IC50 incubated for 24 hrs by propidium iodide based flow cytometry (reference value: 49.9 %); type: functional
[35] = test system: MCF7; test: Cell cycle arrest in human MCF7 cells assessed as accumulation in G1 phase at 5 times of antiproliferative IC50 incubated for 72 hrs by propidium iodide based flow cytometry (reference value: 58 %); type: functional
[36] = test system: MCF7; test: Cell cycle arrest in human MCF7 cells assessed as accumulation in subG1 phase at 5 times of antiproliferative IC50 incubated for 24 hrs by propidium iodide based flow cytometry (reference value: 7.79 %); type: functional
[37] = Cell cycle arrest in human ALL5 cells assessed as accumulation in S phase at 5 times of antiproliferative IC50 incubated for 24 hrs by propidium iodide based flow cytometry (reference value: […]); type: functional
[38] = test system: A549; test: Antiproliferative activity against human A549 cells assessed as reduction in cell viability incubated for 120 hrs by MTT assay; type: functional, cell-based; conditions: A549, 120 h
[39] = Cell cycle arrest in human ALL5 cells assessed as accumulation in subG1 phase at 5 times of antiproliferative IC50 incubated for 48 hrs by propidium iodide based flow cytometry (reference value: 11 %); type: functional
[40] = species on record: Homo sapiens; test: Induction of apoptosis in human ALL5 cells assessed as reduction in 116 kDa PARP expression at 26.5 uM incubated for 24 and 48 hrs by immunoblot analysis; type: functional, cell-based
[41] = species on record: Homo sapiens; test: Induction of apoptosis in human ALL5 cells assessed as increase in 85 kDa PARP expression at 26.5 uM incubated for 24 and 48 hrs by immunoblot analysis; type: functional, cell-based

For COc1c(Br)c2c(c(OC)c1OC)-c1ccc(SC)c(=O)cc1[C@@H](NC(=O)C(C)C)CC2, the Activity [1] was 66.3%, the Activity [2] was 10.6% and the Activity [3] was 46.9%. For the same molecule, the Activity [4] was 22.5%, the Activity [5] was 78% and the Activity [6] was 15.8%. For the same molecule, the selectivity ratio [7] was 0.3, the IC50 [8] was 7 nM and the Activity [9] was 18%. For the same molecule, the Activity [10] was 11.4%, the Activity [11] was 20% and the selectivity ratio [12] was 2.9. The Activity [13] was 5.16%, the Activity [14] was “Active” and the IC50 [15] was 20.4 nM. The IC50 [16] was 75.9 nM, the Activity [17] was 15.4% and the IC50 [18] was 8.6 nM. For the same molecule, the selectivity ratio [19] was 1.8, the Activity [20] was “Active” and the Activity [21] was 57.5%. The Activity [22] was 11.8%, the “Ratio IC50” value [23] was 10.8 and the Activity [24] was 32.1%. For the same molecule, the “Ratio IC50” value [25] was 2.4, the Activity [26] was “Active” and the Activity [27] was 7.59%. It also gave an Activity [28] of 52.5%, an IC50 [29] of 11.5 nM and an Activity [30] of 15.9%. The “Ratio IC50” value [31] was 2, the Activity [32] was 17.5% and the Activity [33] was 23%. The Activity [34] was 12%, the Activity [35] was 9.6% and the Activity [36] was 4.89%. For the same molecule, the Activity [37] was 13.7%, the IC50 [38] was 10.2 nM and the Activity [39] was 31.9%.
COCC(=O)N[C@H]1CCc2c(Br)c(OC)c(OC)c(OC)c2-c2ccc(SC)c(=O)cc21 showed an Activity [1] of 54.3%, an Activity [2] of 20.3% and an Activity [3] of 36.8%. It also gave an Activity [4] of 25%, an Activity [5] of 74.7% and an Activity [6] of 16.5%. It also gave a selectivity ratio [7] of 0.2, an IC50 [8] of 7.6 nM and an Activity [9] of 17.1%. For the same molecule, the Activity [10] was 11.9%, the Activity [11] was 20.6% and the selectivity ratio [12] was 1.5. The Activity [13] was 9.28%, the Activity [14] was “Active” and the IC50 [15] was 11.4 nM. The IC50 [16] was 71.2 nM, the Activity [17] was 7.98% and the IC50 [18] was 5.3 nM. The selectivity ratio [19] was 1, the Activity [20] was “Active” and the Activity [40] was “Active”. The Activity [21] was 65%, the Activity [22] was 13.5% and the “Ratio IC50” value [23] was 9.3. The Activity [24] was 35%, the “Ratio IC50” value [25] was 2.2 and the Activity [26] was “Active”. For the same molecule, the Activity [27] was 8.92%, the Activity [41] was “Active” and the Activity [28] was 52.3%. For the same molecule, the IC50 [29] was 11.4 nM, the Activity [30] was 15.3% and the “Ratio IC50” value [31] was 1.1. For the same molecule, the Activity [32] was 15.1%, the Activity [33] was 29.3% and the Activity [34] was 9.68%. The Activity [35] was 11.9%, the Activity [36] was 6.3% and the Activity [37] was 14.1%. The IC50 [38] was 10.2 nM and the Activity [39] was 29.1%.
